{
  "source": "patent US10995363B2",
  "about": "“Nucleotide analogs” (ABBOTT MOLECULAR INC., priority 2013, dated 2021)",
  "key": {"[1]": {"molecular_target": "T1, Therminator II DNA polymerase (Thermococcus sp., UniProt Q56366, A485L/D141A/E143A/Y409V)", "T1 construct": "purchased New England BioLabs", "T1 sequence (Q56366 whole entry D141A/E143A/Y409V/A485L)": "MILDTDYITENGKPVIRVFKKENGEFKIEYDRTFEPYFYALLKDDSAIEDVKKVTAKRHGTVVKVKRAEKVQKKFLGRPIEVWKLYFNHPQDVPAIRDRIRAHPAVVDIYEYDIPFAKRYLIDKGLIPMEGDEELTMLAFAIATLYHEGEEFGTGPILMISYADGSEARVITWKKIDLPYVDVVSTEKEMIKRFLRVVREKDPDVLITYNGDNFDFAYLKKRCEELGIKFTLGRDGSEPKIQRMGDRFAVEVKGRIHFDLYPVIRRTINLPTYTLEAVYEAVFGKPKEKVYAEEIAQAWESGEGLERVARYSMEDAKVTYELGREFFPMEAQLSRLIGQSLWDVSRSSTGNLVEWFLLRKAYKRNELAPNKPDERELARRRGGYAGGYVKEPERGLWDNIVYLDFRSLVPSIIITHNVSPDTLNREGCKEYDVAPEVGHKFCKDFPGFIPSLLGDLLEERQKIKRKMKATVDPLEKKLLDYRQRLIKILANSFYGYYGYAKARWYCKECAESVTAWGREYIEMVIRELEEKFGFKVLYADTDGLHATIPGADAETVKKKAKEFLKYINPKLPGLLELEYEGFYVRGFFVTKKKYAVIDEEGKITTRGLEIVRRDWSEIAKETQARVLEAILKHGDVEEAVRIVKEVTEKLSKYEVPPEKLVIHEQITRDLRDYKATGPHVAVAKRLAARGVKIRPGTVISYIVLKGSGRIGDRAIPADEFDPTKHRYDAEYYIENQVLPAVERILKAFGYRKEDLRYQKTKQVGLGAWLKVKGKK", "test": "Polymerase extension assay: incorporation of 3′-O-propargyl-dNTP at the 3′ end of a primer on KRAS template", "format": "biochemical, Thermococcus sp. 9∘N", "conditions": "2 mM MnCl2, KRAS template, 35 cycles, size analysis by gel electrophoresis", "protocol": "During the development of embodiments of the technology provided herein, experiments were conducted to assess the incorporation of 3′-O-propargyl-dNTPs into a nucleic acid by a polymerase. In particular, experiments were conducted to evaluate the accurate incorporation of 3′-O-propargyl-dNTPs into a nucleic acid and to evaluate the terminating activity of the 3′-O-propargyl-dNTPs. To assess these characteristics of the nucleotide analogs provided herein, polymerase extension assays were conducted using a template nucleic acid having a sequence from human KRAS (e.g., KRAS exon 2 and flanking intron sequences) and a complementary primer (Table 2).\nTo test incorporation of a 3′-O-propargyl-dTTP into a nucleic acid, a polymerase extension reaction mix was assembled comprising 20 mM Tris-HCl, 10 mM (NH4)SO4, 10 mM KCl, 2 mM MnCl2, 0.1% Triton X-100, 200 μmol 3′-O-propargyl-dTTP, 6.25 μmol of primer R_ke2_trP1_T_bio (SEQ ID NO: 2), and 2 units of Therminator II DNA polymerase (New England BioLabs) in a 25-μl final reaction volume. A volume of 0.5 μmol of the KRAS template (SEQ ID NO: 1) was used as template (Table 2). The polymerase extension reaction was performed using a temperature cycling profile comprising exposing the reaction to a temperature of 95° C. for 2 minutes followed by 35 cycles of 95° C. for 15 seconds, 55° C. for 25 seconds, and 65° C. for 35 seconds.\n(§1) After the polymerase extension reaction, 1 μl of the reaction mix was used directly for nucleic acid size analysis by gel electrophoresis (e.g., using an Agilent 2100 Bioanalyzer and High Sensitivity DNA Assay Chip).\nAdditional polymerase extension experiments were performed using the reaction conditions described above and replacing the 3′-O-propargyl-dTTP and the primer R_ke2_trP1_T_bio with 3′-O-propargyl-dATP and the primer R_ke2_trP1_A bio (SEQ ID NO: 3); 3′-O-propargyl-dCTP and the primer R_ke2_trP1_C bio (SEQ ID NO: 5); and 3′-O-propargyl dGTP and the primer R_ke2_trP1_G bio (SEQ ID NO: 4)."}, "[2]": {"molecular_target": "T1, Therminator II DNA polymerase", "test": "Ladder fragment generation with natural dNTPs and one 3′-O-propargyl-dNTP", "format": "biochemical, Thermococcus sp. 9∘N", "conditions": "natural dNTPs plus one 3′-O-propargyl-dNTP, KRAS template, 50 cycles", "protocol": "During the development of embodiments of the technology provided herein, experiments were conducted to assess using the nucleotide analogs of the present technology to generate nucleic acid fragments that terminate at base-specific positions. In particular, reaction mixtures were produced and tested that included both natural dNTPs and each of the 3′-O-propargyl-dNTPs individually.\nTo test the fragment generation by 3′-O-propargyl-dTTP, a DNA fragment generation reaction mix was prepared comprising 20 mM Tris-HCl, 10 mM (NH4)SO4, 10 mM KCl, 2 mM MnCl2, 0.1% Triton X-100, 1000 μmol dATP, 1000 μmol dCTP, 1000 μmol dGTP, 1000 μmol dTTP, 200 μmol 3′-O-propargyl-dTTP, 6.25 μmol of primer R_ke2_trP1_T_bio (SEQ ID NO: 2), and 2 units of THERMINATOR II DNA polymerase (New England BioLabs) in a 25-μl final reaction volume. A volume of 0.5 μmol of the KRAS template (SEQ ID NO: 1) was used as template. The polymerase extension reaction was performed using a temperature cycling profile comprising exposing the reaction to a temperature of 95° C. for 2 minutes followed by 50 cycles of 95° C. for 15 seconds, 55° C. for 25 seconds, and 65° C. for 35 seconds.\nas §1\nAdditional polymerase extension experiments were performed using the reaction conditions described above and replacing the 3′-O-propargyl-dTTP with 3′-O-propargyl-dATP, 3′-O-propargyl-dCTP, or 3′-O-propargyl dGTP."}},
  "data": [
    {"molecule": "C#CCO[C@H]1C[C@H](n2cc(C)c(=O)[nH]c2=O)O[C@@H]1COP(=O)(O)OP(=O)(O)OP(=O)(O)O", "note": "[3′-O-propargyl-dTTP, 3′-O-propargyl-2′-deoxythymidine-5′-triphosphate]", "values": [
      {"measurement": "amounts of the two populations of nucleic acids (primer length vs primer plus one base)", "setting": "[1]", "value": "approximately equal"},
      {"measurement": "incorporation at the 3′ end of the primer", "setting": "[1]", "value": "successful incorporation"},
      {"measurement": "generation of nucleic acid fragments terminated at base-specific positions", "setting": "[2]", "value": "generated a population of nucleic acid fragments having a range of sizes corresponding to the expected lengths"}
    ]},
    {"molecule": "C#CCO[C@H]1C[C@H](n2cnc3c(=O)[nH]c(N)nc32)O[C@@H]1COP(=O)(O)OP(=O)(O)OP(=O)(O)O", "note": "[3′-O-propargyl-dGTP, 3′-O-propargyl-2′-deoxyguanosine-5′-triphosphate]", "values": [
      {"measurement": "incorporation at the 3′ end of the primer", "setting": "[1]", "value": "successful incorporation"},
      {"measurement": "generation of nucleic acid fragments terminated at base-specific positions", "setting": "[2]", "value": "generated populations of nucleic acid fragments having a range of sizes corresponding to the expected lengths"}
    ]}
  ]
}
